“And” between values parts separate entries of the source, which are not always exact repeats. Equal values may be shown once. Inconclusive results and toxic doses are left out. Cut-off read from the data, not from the text of the source: active = T/C of 150% or more; inactive = T/C below 125%. Peptide text beside a SMILES is read from it. * marks the point of attachment. Trt = c1ccc(C(c2ccccc2)(c2ccccc2)*)cc1; Cbz = O=C(OCc1ccccc1)*; NHNH2 = NN*
Tested on: L1210 leukemia ip in BDF1 mice, survival T/C
Experiment: NCI In Vivo Anticancer Drug Screen. Data for tumor model L1210 Leukemia (intraperitoneal) in B6D2F1 (BDF1) mice
Conditions: endpoint: mean survival time, higher = longer survival
Summary of the method: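 Value reflects the ratio of survival in compound-treated mice to survival in vehicle-treated controls, with both groups carrying the same transplanted tumor.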

[1] = dose: 75.0 mg/kg/injection, schedule: Q01DX001 (ip), vehicle: saline
[2] = dose: 150.0 mg/kg/injection, schedule: Q01DX001 (ip), vehicle: saline
[3] = dose: 100.0 mg/kg/injection, schedule: Q01DX001 (ip), vehicle: saline
[4] = dose: 200.0 mg/kg/injection, schedule: Q01DX001 (ip), vehicle: saline
[5] = dose: 50.0 mg/kg/injection, schedule: Q01DX009 (ip), vehicle: saline with Tween-80
[6] = dose: 100.0 mg/kg/injection, schedule: Q01DX009 (ip), vehicle: saline with Tween-80
[7] = dose: 200.0 mg/kg/injection, schedule: Q01DX009 (ip), vehicle: saline with Tween-80
[8] = dose: 100.0 mg/kg/injection, schedule: Q04DX003 (ip), vehicle: acetone
[9] = dose: 400.0 mg/kg/injection, schedule: Q01DX009 (ip), vehicle: saline with Tween-80
[10] = dose: 50.0 mg/kg/injection, schedule: Q01DX009 (ip), vehicle: Klucel (hydroxypropylcellulose) (HPC)
[11] = dose: 100.0 mg/kg/injection, schedule: Q01DX009 (ip), vehicle: Klucel (hydroxypropylcellulose) (HPC)
[12] = dose: 100.0 mg/kg/injection, schedule: Q04DX003 (ip), vehicle: Klucel (hydroxypropylcellulose) (HPC)
[13] = dose: 200.0 mg/kg/injection, schedule: Q04DX003 (ip), vehicle: Klucel (hydroxypropylcellulose) (HPC)
[14] = dose: 200.0 mg/kg/injection, schedule: Q01DX009 (ip), vehicle: Klucel (hydroxypropylcellulose) (HPC)
[15] = dose: 400.0 mg/kg/injection, schedule: Q04DX003 (ip), vehicle: Klucel (hydroxypropylcellulose) (HPC)
[16] = dose: 50.0 mg/kg/injection, schedule: Q01DX009 (ip), vehicle: saline
[17] = dose: 100.0 mg/kg/injection, schedule: Q01DX009 (ip), vehicle: saline
[18] = dose: 100.0 mg/kg/injection, schedule: Q04DX002 (ip), vehicle: Klucel (hydroxypropylcellulose) (HPC)
[19] = dose: 200.0 mg/kg/injection, schedule: Q04DX002 (ip), vehicle: Klucel (hydroxypropylcellulose) (HPC)

Measured: T/C

CCOc1c(OC)c2c3c(c(-c4c(C)cc5c(C(C)C)c(OCC)c(OC)c6c5c4OC6OC)c(C)cc3c1C(C)C)OC2OC (centres undefined)
inactive: dose: 100.0 mg/kg/injection, schedule: Q01DX001 (ip), vehicle: Klucel (hydroxypropylcellulose) (HPC) 94 % of control | dose: 200.0 mg/kg/injection, schedule: Q01DX001 (ip), vehicle: Klucel (hydroxypropylcellulose) (HPC) 93 % of control | dose: 400.0 mg/kg/injection, schedule: Q01DX001 (ip), vehicle: Klucel (hydroxypropylcellulose) (HPC) 100 % of control

NNC(=O)C(Cc1ccc(O)cc1)NC(=O)C(CO)NC(=O)C(CSC(c1ccccc1)(c1ccccc1)c1ccccc1)NC(=O)OCc1ccccc1 (stereo not drawn) (Cbz-Cys(Trt)-Ser-Tyr-NHNH2; configuration not given here)
inactive: [1] 96 % of control | [2] 96 % of control | dose: 300.0 mg/kg/injection, schedule: Q01DX001 (ip), vehicle: saline 90 % of control

O=C=Nc1ccc(C(=O)CCl)cc1
inactive: dose: 20.0 mg/kg/injection, schedule: Q01DX009 (ip), vehicle: saline with Tween-80 91 % of control | dose: 40.0 mg/kg/injection, schedule: Q01DX009 (ip), vehicle: saline with Tween-80 91 % of control | dose: 80.0 mg/kg/injection, schedule: Q01DX009 (ip), vehicle: saline with Tween-80 101 % of control | dose: 160.0 mg/kg/injection, schedule: Q01DX009 (ip), vehicle: saline with Tween-80 98 % of control

Cc1ncc(CCl)c2c1OC(C)(C)OC2
inactive: [1] 100 % of control | [3] 100 % of control | [2] 101 % of control | [4] 94 % of control

CCOC1(C)OC2CCCCC2O1 (centres undefined)
inactive: [5] 92 % of control | [6] 92 % of control | [7] 92 % of control

Cc1cc2cc3ccc(Cl)nn3c2n[n+]1[O-]
inactive: dose: 62.5 mg/kg/injection, schedule: Q04DX002 (ip), vehicle: Klucel (hydroxypropylcellulose) (HPC) 100 % of control | dose: 125.0 mg/kg/injection, schedule: Q04DX002 (ip), vehicle: Klucel (hydroxypropylcellulose) (HPC) 122 % of control

COC(=O)CC(=O)c1ccc2ccccc2n1
inactive: dose: 50.0 mg/kg/injection, schedule: Q01DX001 (ip), vehicle: carboxymethylcellulose (CMC) 108 % of control | dose: 100.0 mg/kg/injection, schedule: Q01DX001 (ip), vehicle: carboxymethylcellulose (CMC) 100 % of control | dose: 200.0 mg/kg/injection, schedule: Q01DX001 (ip), vehicle: carboxymethylcellulose (CMC) 97 % of control | dose: 400.0 mg/kg/injection, schedule: Q01DX001 (ip), vehicle: carboxymethylcellulose (CMC) 105 % of control

CC1=CC(C)=Nc2ccc(Cl)cc2N1
inactive: [8] 97 % of control | dose: 200.0 mg/kg/injection, schedule: Q04DX003 (ip), vehicle: acetone 101 % of control | dose: 400.0 mg/kg/injection, schedule: Q04DX003 (ip), vehicle: acetone 92 % of control

CCOc1ccc2c(ccc(/C=C\c3ccc(O)c4ccccc34)[n+]2C)c1
inactive: dose: 15.0 mg/kg/injection, schedule: Q01DX001 (ip), vehicle: saline 96 % of control | dose: 30.0 mg/kg/injection, schedule: Q01DX001 (ip), vehicle: saline 96 % of control | dose: 60.0 mg/kg/injection, schedule: Q01DX001 (ip), vehicle: saline 97 % of control | [1] 106 % of control | [2] 101 % of control

CC(=O)Nc1cc(C/C(N)=N/O)cc(NC(C)=O)c1
inactive: [6] 97 % of control | [7] 92 % of control | [9] 100 % of control

CCNC1(c2cccs2)CCCCC1=O (centres undefined)
inactive: dose: 20.0 mg/kg/injection, schedule: Q04DX003 (ip), vehicle: saline 102 % of control | dose: 40.0 mg/kg/injection, schedule: Q04DX003 (ip), vehicle: saline 104 % of control | dose: 80.0 mg/kg/injection, schedule: Q04DX003 (ip), vehicle: saline 102 % of control

CCOC(=O)/C(=C\c1ccccc1)P(=O)(OCC)c1ccccc1 (centres undefined)
inactive: dose: 25.0 mg/kg/injection, schedule: Q01DX009 (ip), vehicle: Klucel (hydroxypropylcellulose) (HPC) 91 % of control | [10] 92 % of control | [11] 96 % of control | [12] 95 % of control | [13] 96 % of control

COc1c(C)c(Br)c(OC)c2ccccc12
inactive: [6] 89 % of control | [7] 94 % of control | [9] 94 % of control

COc1ccc(C=NCCN=Cc2ccc(OC)cc2)cc1
inactive: [10] 88 % of control | [11] 106 % of control | [12] 86 % of control | [14] 104 % of control | [15] 90 % of control

Cc1c(Cl)cccc1NC(=O)NC(=O)c1ccccc1
inactive: [5] 101 % of control | [6] 108 % of control | [7] 97 % of control

CCC(Br)C(=O)O (centres undefined)
inactive: [16] 96 % of control and 97 % of control | dose: 50.0 mg/kg/injection, schedule: Q04DX003 (ip), vehicle: saline 95 % of control | [3] 92 % of control | [17] 89 % of control and 91 % of control | dose: 100.0 mg/kg/injection, schedule: Q04DX002 (ip), vehicle: saline 101 % of control | dose: 100.0 mg/kg/injection, schedule: Q04DX003 (ip), vehicle: saline 100 % of control | [4] 96 % of control | dose: 200.0 mg/kg/injection, schedule: Q04DX002 (ip), vehicle: saline 105 % of control | dose: 200.0 mg/kg/injection, schedule: Q04DX003 (ip), vehicle: saline 90 % of control

NCCNC(=O)c1ccccc1
inactive: [17] 94 % of control | dose: 200.0 mg/kg/injection, schedule: Q01DX009 (ip), vehicle: saline 100 % of control

CCCP(C)(C)=S
inactive: [18] 90 % of control | [19] 90 % of control

O=C(CC(=O)C(F)(F)F)c1csc2ccccc12
inactive: dose: 15.0 mg/kg/injection, schedule: Q01DX015 (ip), vehicle: other 108 % of control | dose: 25.0 mg/kg/injection, schedule: Q01DX009 (ip), vehicle: saline 92 % of control | dose: 25.0 mg/kg/injection, schedule: Q04DX003 (ip), vehicle: acetone 97 % of control | dose: 30.0 mg/kg/injection, schedule: Q01DX015 (ip), vehicle: other 94 % of control | [16] 92 % of control | dose: 50.0 mg/kg/injection, schedule: Q04DX003 (ip), vehicle: acetone 100 % of control | dose: 60.0 mg/kg/injection, schedule: Q01DX015 (ip), vehicle: other 97 % of control | [3] 95 % of control | [8] 97 % of control | dose: 120.0 mg/kg/injection, schedule: Q01DX015 (ip), vehicle: other 94 % of control

Oc1ccc(O)c(-c2cc3c(O)ccc(O)c3[nH]2)c1
inactive: dose: 25.0 mg/kg/injection, schedule: Q04DX002 (ip), vehicle: Klucel (hydroxypropylcellulose) (HPC) 104 % of control | dose: 50.0 mg/kg/injection, schedule: Q04DX002 (ip), vehicle: Klucel (hydroxypropylcellulose) (HPC) 93 % of control | [18] 104 % of control | [19] 96 % of control

C/C=C1\CCC2C(=C1C)CC1C2CC=C2CC(OC(C)=O)CCC21C (centres undefined)
inactive: [11] 97 % of control | [12] 94 % of control | [14] 87 % of control | [13] 91 % of control | dose: 400.0 mg/kg/injection, schedule: Q01DX009 (ip), vehicle: Klucel (hydroxypropylcellulose) (HPC) 90 % of control | [15] 93 % of control

CC[PH+]1c2ccccc2Oc2ccccc21.CC[PH+]1c2ccccc2Oc2ccccc21.[Br][Pd][Br]
inactive: dose: 12.5 mg/kg/injection, schedule: Q04DX003 (ip), vehicle: saline with Tween-80 98 % of control | dose: 25.0 mg/kg/injection, schedule: Q04DX003 (ip), vehicle: saline with Tween-80 98 % of control | dose: 50.0 mg/kg/injection, schedule: Q04DX003 (ip), vehicle: saline with Tween-80 98 % of control

C=CCCCCCCCCC(=O)O
inactive: dose: 100.0 mg/kg/injection, schedule: Q01DX009 (ip), vehicle: other 104 % of control | dose: 100.0 mg/kg/injection, schedule: Q04DX002 (ip), vehicle: other 87 % of control | dose: 200.0 mg/kg/injection, schedule: Q01DX009 (ip), vehicle: other 93 % of control | dose: 200.0 mg/kg/injection, schedule: Q04DX002 (ip), vehicle: other 112 % of control | dose: 400.0 mg/kg/injection, schedule: Q01DX009 (ip), vehicle: other 89 % of control

— PubChem BioAssay AID248 (DTP/NCI, 2004)
